Experimental data published in patent US20250287930A1, “REGULATION OF IMMUNE RESPONSES THROUGH SELECTIVE NEURAL ACTIVATION” (The Trustees of Columbia University in the City of New York, priority 2024, published 2025).

Legend:
cNST neurons [1] = assay: Fos induction in the cNST after intraperitoneal immune stimulation; type: in vivo, mice; conditions: for Fos induction in the cNST: intraperitoneal injection, brains taken 2 h later
Procedure: (§1) Mice housed in their home cages were injected intraperitoneally with lipopolysaccharide (LPS, 50 μg kg-1, Cell Signaling Technology, #14011), lipoteichoic acid (LTA, 1 mg kg-1 Sigma, #L2512), Flagellin (20 μg kg-1, Sigma Aldrich #SRP8029), Profilin (20 μg kg-1, Sigma Aldrich, #SRP8050), Zymosan (2.5 mg kg-1, Sigma Aldrich #Z4250), IL-10 (100 μg kg-1, BioLegend, #575804), a cocktail of IL-6 (100 μg kg-1, BioLegend #575706), IL-1β (100 μg kg-1, R&D, #401-ML) and TNF-α (100 μg kg-1, R&D, #410-MT), or saline control (0.9% NaCl), then 2 h later, perfused transcardially with PBS followed by 4% paraformaldehyde. Brains were dissected, fixed in 4% PFA overnight at 4° C., and then sliced coronally at 100 μm thickness. The brain sections were permeabilized and blocked with 10% normal donkey serum (EMD Millipore, #S30) in PBS containing 0.3% Triton X-100. Sections were incubated with an anti-Fos primary antibody (SYSY, #226004 guinea pig, diluted 1:5,000) at 4° C. overnight, followed by labeling with a secondary antibody (Alexa Fluor 647-conjugated donkey anti-guinea pig, Jackson ImmunoResearch, #706605148) at room temperature for 2 h. For double RNA in situ hybridization, fixed frozen nodose ganglia or brains were sectioned at 16 μm thickness and processed for mRNA detection using the RNAscope Fluorescent Multiplex Kit (Advanced Cell Diagnostics) following the manufacturer's instructions. The following RNAscope probes were used: Fos (#316921-C2), Dbh (#464621-C1), Trpa1 (#400211-C3) and Calca (#578771-C2), GFP (#400281-C1). Images were acquired using an Olympus FluoView 1000 confocal microscope. Quantification of fluorescent signals was carried out by manually counting the number of positive neurons.

DBH neurons in the cNST = assay: Fos induction in DBH neurons in the cNST by LPS and cytokine stimulation; type: in vivo; conditions: Dbh-cre mice, intraperitoneal injection
Procedure: as §1, with “For double RNA in situ hybridization, fixed frozen nodose ganglia or brains were sectioned at 16 μm thickness and processed for mRNA detection using the RNAscope Fluorescent Multiplex Kit (Advanced Cell Diagnostics) following the manufacturer's instructions. The following RNAscope probes were used: Fos (#316921-C2), Dbh (#464621-C1), Trpa1 (#400211-C3) and Calca (#578771-C2), GFP (#400281-C1). Images were acquired using an Olympus FluoView 1000 confocal microscope.” left out

cNST neurons [2] = assay: Fiber photometry of LPS-evoked activity in the cNST (GCaMP6s, Vglut2-cre mice); type: in vivo
Procedure: (§2) All stereotaxic surgery procedures were carried out using aseptic technique. […] The viral constructs were injected into the cNST through a small craniotomy. The injection coordinates (based on Paxinos stereotaxic coordinates) for virus delivery in the cNST were as follows: caudal 7.5 mm, lateral ±0.3 mm, ventral 3.7-4 mm, all relative to Bregma. In chemogenetic experiments, TRAP2, Dbh-cre, Vglut2-cre and Vgat-cre mice received bilateral injections of 200 nl of AAV9-Syn-DIO-hM3Dq (Addgene, #44361-AAV9) and 300 nl of AAV9-Syn-DIO-hM4Di (Addgene, #44362-AAV9) in the cNST. Equivalent volumes of AAV9-Syn-DIO-mCherry (Addgene, #50459-AAV9) were injected as controls. For fiber photometry experiments, Vglut2-cre mice were unilaterally injected with 100 nl of AAV9-Syn-Flex-GCaMP6s (Addgene, #100845-AAV9) in the cNST, and an optical fiber (400 μm core, 0.48 NA, Doric Lenses) was implanted 50-100 μm above the GCaMP virus injection site.
Photometry experiments were conducted at least 14 days after the stereotaxic viral injection and fiber implantation (see the section on stereotaxic surgery for details). Prior to the experiments, mice were acclimated to the recording chamber for 1 h per day over 3 consecutive days. On the 4th and 5th day, mice were recorded for the bulk GCaMP responses to saline and LPS (0.5 mg kg-1), respectively, in a 5 h recording session. Saline and LPS were intraperitoneally injected 15 min after the onset of recording. Real-time population-level GCaMP fluorescence signals were detected, amplified and recorded using a RZ5P fiber photometry system with Synapse software (Tucker Davis Technologies). The collected data were downsampled, detrended and smoothed by custom MATLAB code. The calcium transients were identified as described previously (Barretto, R. P. et al. Nature 517, 373-376, (2015); Rousseeuw, P. J. C., C. J. Am. Stat. Assoc. 88, 1273-1283, (1993); Jin, H., Fishman, Z. H., Ye, M., Wang, L. & Zuker, C. S. Cell 184, 257-271 e216, (2021)) and the area under the curve (AUC) was calculated by integrating fluorescence signal under identified calcium transients. […]

circulating cytokines = assay: LPS-induced circulating cytokines in peripheral blood by ELISA; type: in vivo, mice
Procedure: When using TRAP2 animals, at least 4 weeks elapsed between TRAPing and CNO treatment. Two doses (2 mg kg-1 and 1 mg kg-1) of CNO were given intraperitoneally at 12 h and 1 h prior to saline or LPS stimulation. Two hours after the intraperitoneal injection of saline or LPS (0.1 mg kg-1), blood samples were collected from either the submandibular or the tail vein. Cytokines in the blood were measured using commercially available ELISA kits (R&D), following manufacturer's instructions. Saline and LPS experiments were conducted on the same cohort of mice but at least 7 days apart.
To examine LPS-induced cytokine responses over time, wild-type (C56BL/6J) mice were injected IP with saline or LPS, and peripheral blood samples were collected at 0, 2 hours, 4 hours, and 6 hours post-stimulation.

vagal sensory neurons = assay: Vagal calcium imaging of nodose ganglion (GCaMP6s in all vagal sensory neurons); type: in vivo, mice; conditions: for number of responding vagal sensory neurons: of 423 imaged vagal sensory neurons, cytokine intraperitoneal; for calcium activity in a subset of vagal sensory neurons: intraperitoneal cytokine, nodose ganglion
Procedure: (§3) Calcium imaging of the nodose ganglion was conducted as described previously (Li, M. et al. Nature 610, 722-730, (2022); Tan, H. E. et al. Nature 580, 511-516, (2020)). For imaging in response to intragastric delivery of glucose (or linoleic acid), and IP injections of saline control and cytokines, a typical recording session consisted of: 1st: saline; 2nd: one of the three pro-inflammatory cytokines (TNF-α, IL-1β or IL-6); 3rd: anti-inflammatory cytokine (IL-10); 4th and 5th: two trials with glucose (or linoleic acid); each trial was 5 min. Cytokines were injected 1 min after the onset of the recording. Glucose (500 mM) and linoleic acid (10%) was delivered intragastrically. For all experiments 100 μg kg-1 of each cytokine was used. To deliver cytokines […], a segment of the intestine was placed in a custom-made perfusion chamber while still keeping it connected to the remainder of the gastrointestinal tract (no carbogenation). Each recording session included six interleaved trials, with 2 trials for each stimulus. Trials were 15 mins long, and consisted of a 180-s baseline (saline), a 180-s cytokine or control stimulus, and a 9-min washout (saline) period. The flow rates were maintained at around 600 μl min-1 throughout the experiment to minimize mechanical responses that may occur during the transition between trials. Cytokines were dissolved in saline at the concentration of 1 μg ml-1. During the entire perfusion session, all of the solutions were maintained at 37° C.
Imaging data was acquired exactly as previously described (Li, M. et al. Nature 610, 722-730, (2022); Tan, H. E. et al. Nature 580, 511-516, (2020)). Neuronal activity was analyzed for significant stimulus-evoked responses as described. The baseline distribution of deviations was first computed from the median for each cell throughout the entire experiment using periods prior to the stimulus delivery. Subsequently, this baseline was utilized to derive a modified z-score by subtracting the median and dividing by the median absolute deviation. Trials with an average modified z-score above 1.6 for the 180s (stimuli delivered via IP) or 480s (stimuli delivered via perfusion) following the initiation of stimulation were classified as responding trials (all responders had minimal peak amplitudes of 1% ΔF/F). Z-scores from responders were normalized across stimuli to generate heat maps of normalized fluorescence traces.

[3] = tested on: LPS-activated neurons in the cNST; assay: Chemogenetic inhibition of LPS-TRAPed cNST neurons, LPS-evoked cytokines; type: in vivo, mice; parameters: unit not given here; conditions: LPS-treated but not silenced animals
Procedure: as §2
(§4) The TRAP strategy was used in TRAP2 mice to gain genetic access to LPS-activated neurons in the cNST. […]
(§5) When using TRAP2 animals, at least 4 weeks elapsed between TRAPing and CNO treatment. […] Cytokines in the blood were measured using commercially available ELISA kits (R&D), following manufacturer's instructions. […]

[4] = tested on: LPS-activated neurons in the cNST; assay: Chemogenetic activation of LPS-TRAPed cNST neurons, cytokines; type: in vivo, mice
Procedure: as §2, §4, §5

TRPA1 vagal neurons = assay: Calcium imaging of TRPA1 vagal neurons; type: in vivo, mice
Procedure: as §3, with “Trials were 15 mins long, and consisted of a 180-s baseline (saline), a 180-s cytokine or control stimulus, and a 9-min washout (saline) period. The flow rates were maintained at around 600 μl min-1 throughout the experiment to minimize mechanical responses that may occur during the transition between trials. Cytokines were dissolved in saline at the concentration of 1 μg ml-1. During the entire perfusion session, all of the solutions were maintained at 37° C.” left out
Imaging data was acquired exactly as previously described (Li, M. et al. Nature 610, 722-730, (2022); Tan, H. E. et al. Nature 580, 511-516, (2020)). Neuronal activity was analyzed for significant stimulus-evoked responses as described. […] Z-scores from responders were normalized across stimuli to generate heat maps of normalized fluorescence traces.

Flagellin
Fos induction in the cNST (cNST neurons [1]): robustly activated Fos

lipoteichoic acid [LTA]
Fos induction in the cNST (cNST neurons [1]): robustly activated Fos

lipopolysaccharide [LPS]
Fos expression in the cNST of Myd88−/− mice (cNST neurons [1]; Myd88−/− mice, LPS intraperitoneally, 2 h): largely absent
Fos induction in the cNST (cNST neurons [1]): robustly activated Fos
activation (Fos) of DBH neurons in the cNST (DBH neurons in the cNST): activate DBH neurons
reduction of average cNST response after vagotomy (cNST neurons [2]; LPS 0.5 mg kg-1): ~80%
cNST GCaMP6s response, AUC (area under the curve) (cNST neurons [2]; LPS 0.5 mg kg-1, after bilateral vagotomy): 10.6±6.1
cNST GCaMP6s response, AUC (area under the curve) (cNST neurons [2]; LPS 0.5 mg kg-1, intact vagus): 52.6±7.2
cytokine induction in Myd88−/− mice (circulating cytokines; IL-6, IL-1β, TNF-α, IL-10, 2 h after LPS): dramatically reduced
TNFa in the peripheral blood (circulating cytokines; control animals given LPS): 200 pg/mL
direct activation of vagal neurons (vagal sensory neurons; LPS 0.5 mg kg-1): not directly activated
IL-1β level [3]: 200
IL-10 level [3]: 750

C[N+]1([O-])CCN(C2=Nc3cc(Cl)ccc3Nc3ccccc32)CC1 [CNO, clozapine N-oxide]
anti-inflammatory cytokines (IL-10), change on activation [4]: very large increase
pro-inflammatory cytokines, change on activation [4]: dramatic suppression

IL-1β: pro-inflammatory cytokine
number of responding vagal sensory neurons (vagal sensory neurons): 8

Profilin
Fos induction in the cNST (cNST neurons [1]): robustly activated Fos

tumor necrosis factor [TNF-α]
calcium activity in a subset of vagal sensory neurons (vagal sensory neurons): triggered robust activity
number of responding vagal sensory neurons (vagal sensory neurons): 13

B1: interleukin-10 (protein, UniProt P22301 19-178, looked up)
Interleukin-10: SPGQGTQSENSCTHFPGNLPNMLRDLRDAFSRVKTFFQMKDQLDNLLLKESLLEDFKGYLGCQALSEMIQFYLEEVMPQAENQDPDIKAHVNSLGENLKTLRLRLRRCHRFLPCENKSKAVEQVKNAFNKLQEKGIYKAMSEFDIFINYIEAYMTMKIRN
notes: anti-inflammatory cytokine
Fos induction in the cNST (cNST neurons [1]): induces significant Fos labelling
activation (Fos) of DBH neurons in the cNST (DBH neurons in the cNST): activate DBH neurons
number of responding vagal sensory neurons (vagal sensory neurons): 11/423
activation of TRPA1-expressing vagal neurons (TRPA1 vagal neurons; GCaMP6s imaging): activated
number of responding TRPA1 neurons (TRPA1 vagal neurons; imaged TRPA1 neurons, IP or perfusion): 27 of 189

B2: interleukin-4 (protein, UniProt P05112 25-153, looked up)
Interleukin-4: HKCDITLQEIIKTLNSLTEQKTLCTELTVTDIFAASKNTTEKETFCRAATVLRQFYSHHEKDTRCLGATAQQFHRHKQLIRFLKRLDRNLWGLAGLNSCPVKEANQSTLENFLERLKTIMREKYSKCSS
notes: anti-inflammatory cytokine
calcium activity in a subset of vagal sensory neurons (vagal sensory neurons): triggered robust activity
